These results are taken from ChEMBL document CHEMBL1149690, “Membrane permeable esterase-activated fluorescent imaging probe” (Bioorg Med Chem Lett, 2007).

A short description of data set [1]: Photostability after 30 mins assessed by fluorescence intensity. The following applies: 0.5 h. Type of data set: ADME.
A short description of data set [2]: Chemical stability assessed as hydrolysis at pH 3 to 9 after 1.5 hrs. Type of data set: physicochemical. The following applies: buffer, pH 3, 1.5 h.
The nature of data set [3]: Chemical stability assessed as hydrolysis at pH below 1. Type of data set: physicochemical.
Data set [4] can be described thus: Chemical stability assessed as hydrolysis at pH more than 10. The data set is classed as physicochemical.

In data set [1], `CCCN1/C(=C/C=C2\CCC/C(=C\C=C3\N(CCC)c4ccccc4C3(C)C)C2=O)C(C)(C)c2ccccc21` gave a Fluorescence intensity of less than 15%.

On to `CCCN1/C(=C/C=C2\CCCC(/C=C/C3=[N+](CCC)c4ccccc4C3(C)C)=C2OC(C)=O)C(C)(C)c2ccccc21.[I-]`, for which the results for the Activity entry in data set [2], in data set [3] and in data set [4] were “Not Active”, “Active” and “Active”, respectively.
